Assay [1] concerns S. aureus ATCC 29213. Description: MIC assay. Particulars: S. aureus ATCC 29213, Mueller-Hinton broth pH 7.2, aerobic, 37° C., 24 hours. Type of assay: cell-based, Staphylococcus aureus. Here is the method: 1. Staphylococcus aureus—the principal staphylococcal test micro-organism used in these studies was Staphylococcus aureus ATCC 29213. This strain is the one recommended for QC/QA purposes in Minimum Inhibitory Concentration (MIC) assays by the US Clinical and Laboratory Standards Institute (formerly the NCCLS), an FDA-recognised body.
(§1) The staphylococci and enterococci were cultured and maintained on Mueller-Hinton Medium (agar and broth) at pH 7.2; they were incubated aerobically at 37° C. for 24 hours.
(§2) This is a standard international method for quantitatively assessing the antimicrobial activity of a compound in a liquid medium. The method used a 96-well microtitre plate, capable of holding about 200 μl of liquid per well. […] The culture media were as described above for the relevant test organisms.
(§3) The wells were inoculated with a liquid suspension of freshly grown micro-organism and incubated under the conditions described above. After incubation, the microtitre plate was examined visually (with the aid of a light box) for cloudiness in each well, which would indicate microbial growth. The MIC value was recorded as the lowest concentration of test compound required to inhibit microbial growth, i.e., the lowest concentration for which the liquid in the well remained clear.
(§4) The assays were conducted in duplicate and included both negative (culture medium only) and positive (culture medium, diluting solvent and inoculum) controls.
(§5) The following experiments all used S. aureus ATCC 29213 as the test organism. MIC, MBC and DDA assays, as described above, were carried out using a range of different benzoquinones and hydroquinones. Supplemented DDA assays, in the presence of salt, lipid and blood, were also conducted.

Assay [2] concerns S. aureus ATCC 29213. Kind of assay: MBC assay. The format is cell-based, Staphylococcus aureus. Here is the method: as §1
(§6) This assay, normally carried out after an MIC assay, determines the minimum concentration of a compound that is lethal to the micro-organism being tested.
(§7) These samples were then individually sub-cultured on non-selective agar medium, under the incubation conditions described above. Following incubation they were examined visually for bacterial growth.
as §5

Assay [3] deals with S. aureus ATCC 29213. Description: Disc diffusion assay (DDA). The format is cell-based, Staphylococcus aureus. The following applies: S. aureus ATCC 29213, unsupplemented agar, 200 μg per disc (thymoquinone 50 μg, 2,6-dimethoxy-p-benzoquinone 100 μg); for zone of inhibition at 200 µg/disc: Staphylococcus aureus, ATCC29213, read-out: DDA (diameter of zone of inhibition). Here is the method:
as §1
(§8) A sterile paper disc was impregnated with a sample of the test compound and a minimum of 30 minutes allowed for the solvents to evaporate as far as possible. The disc was then placed on an agar plate onto which the test micro-organism had been inoculated. The plate was then incubated under the conditions described above, following which it was examined visually for signs of bacterial growth. […] The diameter of this zone of “inhibition” was measured using a ProtoCOL™ automated zone sizer (Synbiosis, Cambridge, UK).
(§9) The area of the zone of inhibition was calculated from the measured zone diameter (D) using the formula π(D/2)^2.
(§10) For most DDA assays, 200 μg of each compound was loaded onto each disc.

Assay [4] concerns S. aureus ATCC 29213. Kind of assay: Supplemented disc diffusion assay. The following applies: S. aureus ATCC 29213, 200 μg per disc (thymoquinone 50 μg, 2,6-dimethoxy-p-benzoquinone 100 μg); for zone of inhibition at 200 µg/disc: Staphylococcus aureus, ATCC29213, 24 h. Type of assay: cell-based, Staphylococcus aureus. Here is the method:
as §1, §8
(§11) Performance under these conditions can provide a more reliable indication of activity on topical application. For assays conducted using S. aureus strains, the supplements were defibrinated horse blood (5% v/v), lipid (Tween™ 80 at 1% v/v) and sodium chloride (100 mM). For those using Propionibacterium spp. strains, the supplements were lipid (Tween™ 80 at 1% v/v) and sodium chloride (100 mM).
as §5, §10
(Agar diffusion results depend on both activity and mobility in agar.)

Assay [5] concerns P. acnes NCTC 737. Kind of assay: MIC assay. Type of assay: cell-based, Propionibacterium acnes. Here is the method:
2. Propionibacterium spp.—the principal propionibacterial strain used in these studies was Propionibacterium acnes NCTC 737.
(§12) The Propionibacterium spp organisms were cultured and maintained on Wilkins-Chalgren Anaerobe Medium (agar and broth) at pH 6.0; cultures were incubated anaerobically at 37° C. for 72 hours.
as §2, §3, §4
(§13) MIC, MBC and DDA assays, as described above, were carried out using a range of different benzoquinones and hydroquinones. Supplemented DDA assays, in the presence of salt and lipid, were also conducted.

The test system of assay [6] is P. acnes NCTC 737. Description: MBC assay. The following applies: for MIC/MBC ratio: P. acnes NCTC 737. Type of assay: cell-based, Propionibacterium acnes. Here is the method:
as §12, §6, §7, §13

Assay [7] concerns P. acnes NCTC 737. Description: Disc diffusion assay (DDA). Type of assay: cell-based, Propionibacterium acnes. Particulars: Cutibacterium acnes. Here is the method: as §12, §8, §9, §10
The test system of assay [8] is P. acnes NCTC 737. Description: Supplemented disc diffusion assay. Type of assay: cell-based, Propionibacterium acnes. Particulars: for zone of inhibition at 200 µg/disc: Cutibacterium acnes, NCTC737, 72 h; for effect of lipid on antimicrobial activity: P. acnes NCTC 737, activity increases in the presence of lipid. Here is the method: as §12, §8, §11, §13, §10
Setting [9] is: defibrinated horse blood 5% v/v.
The mark [10] stands for this setting: NCTC737, P. acnes NCTC 737, unsupplemented agar, 200 μg per disc (2,6-dimethoxy-p-benzoquinone 100 μg), read-out: DDA (diameter of zone of inhibition).

In brackets after ≈: the same amount, converted by molar mass. Where two headings read alike, the source gives them in different places.

On to `CC(C)(C)c1ccc(O)c(O)c1` [4-t-butylcatechol], for which the MIC (commonly the smallest concentration in the dilution series that meets the test's criterion for growth inhibition) in the assay with S. aureus ATCC 29213 [1] (Staphylococcus aureus, ATCC29213, read-out: MIC) came to 62.5 mg/L (≈ 376 µM). Moreover, the MIC/MBC ratio in the assay on S. aureus ATCC 29213 [2] is 1. In the assay on S. aureus ATCC 29213 [2] (Staphylococcus aureus, ATCC29213, read-out: MBC), the MBC – broadly, the lowest tested concentration that kills the bacteria rather than only halting them – stood at 62.5 mg/L (≈ 376 µM). Moreover, the zone of inhibition at 200 µg/disc in the assay with S. aureus ATCC 29213 [3] came out at 12 mm; with S. aureus ATCC 29213 [4] (Tween 80 at 1% v/v, read-out: DDA + lipid), 10.9 mm; in the assay on S. aureus ATCC 29213 [4] (defibrinated horse blood 5% v/v, read-out: DDA + blood), 9.65 mm; in the assay with S. aureus ATCC 29213 [4] (sodium chloride 100 mM, read-out: DDA + salt) it was 13.1 mm.

Turning to `O=C1C(F)=C(F)C(=O)C(F)=C1F` [tetrafluoro-p-benzoquinone], in the assay with P. acnes NCTC 737 [5], the “activity against P. acnes NCTC 737 (in words)” value is recorded as “strongly so”. In the assay on P. acnes NCTC 737 [5] (Cutibacterium acnes, NCTC737, 72 h, pH 6), this compound showed an MIC of 125 mg/L (≈ 694 µM). Besides, the MBC in the assay with P. acnes NCTC 737 [6] (Cutibacterium acnes, NCTC737) came out at 250 mg/L (≈ 1390 µM). The MIC/MBC ratio in the assay with P. acnes NCTC 737 [6] came to 0.5. In addition, the zone of inhibition at 200 µg/disc with P. acnes NCTC 737 [7] (NCTC737, read-out: DDA (diameter of zone of inhibition)) was 25.9 mm; in the assay with P. acnes NCTC 737 [8] (read-out: DDA + lipid) it was 30.8 mm; in the assay on P. acnes NCTC 737 [8] (read-out: DDA + salt), 32.4 mm. For the same compound, in the assay with P. acnes NCTC 737 [8], the “effect of lipid on antimicrobial activity” value (shortened to “effect of lipid”) is “potentiated”.

For `Cc1cc(O)c(C)c(C)c1O` [2,5,6-trimethyl-p-hydroquinone], the minimum inhibitory concentration (MIC) against S. aureus ATCC 29213 [1] was found to be 7.8 mg/L (≈ 51.3 µM). Moreover, in the assay on S. aureus ATCC 29213 [2], the MBC is 31.25 mg/L (≈ 205 µM) and the MIC/MBC ratio is listed as 0.25. Further, the “DDA (diameter of zone of inhibition)” value in the assay on S. aureus ATCC 29213 [3] came out at 63.40 mm. Also, the “DDA + lipid” value with S. aureus ATCC 29213 [4] (Tween 80 at 1% v/v) is listed as 56.97 mm. For the same compound, the “DDA + blood” value in the assay on S. aureus ATCC 29213 [4] (setting [9]) is reported as 0.0 mm. Further, in the assay with S. aureus ATCC 29213 [4] (sodium chloride 100 mM), the “DDA + salt” value is on record as 61.63 mm.

In the case of `CC1=CC(=O)C(C(C)C)=CC1=O` [thymoquinone], the MIC/MBC ratio in the assay on S. aureus ATCC 29213 [2] and with P. acnes NCTC 737 [6] was 0.5 each time. In addition, the zone of inhibition at 200 µg/disc in the assay on S. aureus ATCC 29213 [3] was 15.6 mm; in the assay with P. acnes NCTC 737 [7] (setting [10]), 27.5 mm. Also, in the assay with P. acnes NCTC 737 [8], the “effect of lipid” value was “potentiated”.

Consider `O=C1C=CC(=O)C=C1` [p-benzoquinone], for which the zone of inhibition at 200 µg/disc with S. aureus ATCC 29213 [3] was determined as 29.3 mm; in the assay with P. acnes NCTC 737 [7] (setting [10]), 24.9 mm. Moreover, the “effect of lipid” value with P. acnes NCTC 737 [8] was “potentiated”.

Compound `Oc1cc(Cl)c(O)c(Cl)c1` [2,6-dichloro-p-hydroquinone] gave a minimal inhibitory concentration (MIC) in the assay with S. aureus ATCC 29213 [1] of 31.25 mg/L (≈ 175 µM). For the same compound, in the assay with S. aureus ATCC 29213 [2], the minimal bactericidal concentration (MBC) came to 31.25 mg/L (≈ 175 µM) and the MIC/MBC ratio turned out to be 1. In the assay on S. aureus ATCC 29213 [3], the “DDA (diameter of zone of inhibition)” value is on record as 16.29 mm. Further, in the assay with S. aureus ATCC 29213 [4] (Tween 80 at 1% v/v), the “DDA + lipid” value came to 14.32 mm. Besides, the “DDA + blood” value in the assay on S. aureus ATCC 29213 [4] (setting [9]) came to 11.83 mm. For the same compound, the “DDA + salt” value with S. aureus ATCC 29213 [4] (sodium chloride 100 mM) turned out to be 16.19 mm.

On to `Oc1ccc(O)cc1` [p-hydroquinone], for which the MIC/MBC ratio in the assay on S. aureus ATCC 29213 [2] is on record as 1. Moreover, the “DDA (diameter of zone of inhibition)” value in the assay with S. aureus ATCC 29213 [3] was found to be 18.94 mm.

Values taken from US20090030086A1, “ANTIMICROBIAL AGENTS” (priority 2005, published 2009).
